How the values were obtained:
[1] = Metabolic stability in human liver microsomes assessed as compound remaining measured after 30 mins; assay type: ADME, Microsome; details: read-out: Stability
[2] = AUC (0 to infinity) in male mouse at 5 mg/kg, po; assay type: ADME, organism-based; details: in vivo
Hepatitis B virus [3] = experiment: Antiviral activity against HBV infected in human HepG2 cells expressing NTCP assessed as viral DNA replication at 1 uM incubated for 6 days by Southern blot analysis (reference value: 100 %); assay type: functional; details: time 6 day
HepG2 [4] = experiment: Effect on viral dslDNA level in human HepG2 cells expressing NTCP infected with HBV at 1 uM incubated for 6 days by Southern blot analysis; assay type: functional, cell-based; details: time 6.0 day
Hepatitis B virus [5] = experiment: Antiviral activity against HBV infected in human HepG2 cells expressing NTCP assessed as decrease in intracellular HBc level at 1 uM incubated for 6 days by indirect immunofluorescence staining based analysis; assay type: functional, organism-based; details: time 6.0 day
[6] = Clearance in male mouse at 5 mg/kg, iv; assay type: ADME, organism-based; details: in vivo
[7] = Metabolic stability in mouse liver microsomes assessed as compound remaining measured after 30 mins; assay type: ADME, Microsome; details: read-out: Stability
HepG2 [8] = experiment: Effect on viral rcDNA level in human HepG2 cells expressing NTCP infected with HBV at 1 uM incubated for 6 days by Southern blot analysis; assay type: functional, cell-based; details: time 6.0 day
Hepatitis B virus [9] = experiment: Antiviral activity against HBV in human HepG2.2.15 cells assessed as reduction in viral replication incubated for 5 days by real-time PCR analysis; assay type: functional, organism-based; details: HepG2.2.15, 120 h
Cytochrome P450 2C9 = Cytochrome P450 2C9 (Homo sapiens, UniProt P11712); experiment: Inhibition of CYP2C9 in human liver microsome; assay type: ADME, microsomes
Hepatitis B virus [10] = experiment: Antiviral activity against HBV infected in human HepG2 cells expressing NTCP assessed as fold increase in intracellular capsid level at 1 uM incubated for 6 days by Western blot analysis relative to control; assay type: functional; details: time 6 day
[11] = AUC (0 to infinity) in male mouse at 5 mg/kg, iv; assay type: ADME, organism-based; details: in vivo
[12] = Clearance in male mouse at 20 mg/kg, iv; assay type: ADME, organism-based; details: in vivo
[13] = Half life in male mouse at 20 mg/kg, po; assay type: ADME, organism-based; details: in vivo
[14] = Plasma protein binding in mouse; assay type: ADME, cell-free; details: read-out: PPB (converted)
[15] = Cmax in male mouse at 20 mg/kg, po; assay type: ADME, organism-based; details: in vivo

Sequence of Cytochrome P450 2C9 (P11712 whole entry): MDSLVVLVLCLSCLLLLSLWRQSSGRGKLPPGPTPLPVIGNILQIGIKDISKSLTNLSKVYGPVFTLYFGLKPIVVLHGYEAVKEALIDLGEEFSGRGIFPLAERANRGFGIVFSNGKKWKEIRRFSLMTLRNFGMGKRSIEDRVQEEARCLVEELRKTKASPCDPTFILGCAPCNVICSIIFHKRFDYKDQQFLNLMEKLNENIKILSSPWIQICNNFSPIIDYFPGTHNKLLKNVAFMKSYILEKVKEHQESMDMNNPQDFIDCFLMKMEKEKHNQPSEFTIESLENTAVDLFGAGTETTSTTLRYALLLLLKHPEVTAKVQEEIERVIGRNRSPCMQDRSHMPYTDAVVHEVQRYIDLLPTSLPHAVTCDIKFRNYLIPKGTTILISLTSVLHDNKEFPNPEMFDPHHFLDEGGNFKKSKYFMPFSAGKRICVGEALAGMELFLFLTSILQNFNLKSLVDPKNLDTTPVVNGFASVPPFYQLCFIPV

SMILES: Nc1cc(F)c(S(=O)(=O)NC2COC2)cc1C(=O)Nc1ccc(F)c(C(F)F)c1
- remaining at 0.5 h [1]: > 100%
- AUC(0-inf) [2]: 570 ng·h/mL
- Activity (Hepatitis B virus [3]): 6%
- Activity (HepG2 [4]): No effect
- Activity (Hepatitis B virus [5]): Active; Compound Modestly Decreased Hbc Level
- clearance [6]: 92.7 mL/min/kg
- remaining at 0.5 h [7]: 56.8%
- Activity (HepG2 [8]): No effect
- EC50 (Hepatitis B virus [9]): 50 nM
- IC50 (Cytochrome P450 2C9): > 100000 nM
- fold change (FC) (Hepatitis B virus [10]): ~2
- AUC(0-inf) [11]: 900 ng·h/mL
- clearance [12]: 65.5 mL/min/kg
- half-life [13]: 52.2 min
- fraction unbound [14]: 0.143
- Cmax [15]: 370 ng/mL
